ChEMBL document CHEMBL1148849, “Synthesis and structure evaluation of a novel cantharimide and its cytotoxicity on SK-Hep-1 hepatoma cells” (2007)
Calls of active or inactive are those of the source. No cut-off for these calls is given here.

How the values were obtained:
[1] = test system: SK-HEP1; test: Effect on apoptosis in human SK-HEP-1 cells assessed as increase in caspase 3 activation at 25 ug/mL after 48 hrs; assay type: functional, cell-based
[2] = test system: SK-HEP1; test: Effect on apoptosis in human SK-HEP-1 cells at 25 ug/mL after 48 hrs by TUNEL method; assay type: functional, cell-based
[3] = test system: SK-HEP1; test: Cytotoxicity against human SK-HEP-1 cells assessed as inducing cell shrinkage after 48 hrs by MTS assay; assay type: functional, cell-based
[4] = test system: SK-HEP1; test: Cytotoxicity against human SK-HEP-1 cells assessed as inducing loss of colony formation by MTS assay; assay type: functional, cell-based
[5] = test system: SK-HEP1; test: Cytotoxicity against human SK-HEP-1 cells assessed as 50 percent MTS reduction after 48 hrs; assay type: functional
[6] = test system: LNCaP; test: Apoptotic effect on LNCap cells assessed as induction of shrinkage at 25 ug/mL after 48 hrs; assay type: functional, cell-based; conditions: Homo sapiens
[7] = test system: MCF7; test: Apoptotic effect on MCF7 cells assessed as induction of shrinkage at 25 ug/mL after 48 hrs; assay type: functional, cell-based; conditions: Homo sapiens

COc1ccc2nc(N3C(=O)[C@@]4(C)[C@H]5CC[C@H](O5)[C@@]4(C)C3=O)sc2c1
Activity [1]: Active
Activity [2]: Active
Activity [3]: Active
Activity [4]: Active
Activity [5]: 6.25 µg/mL
Activity [6]: Active
Activity [7]: Active

Cc1ccc2nc(N3C(=O)[C@@]4(C)[C@H]5CC[C@H](O5)[C@@]4(C)C3=O)sc2c1
Activity [1]: Active
Activity [2]: Active
Activity [3]: Active
Activity [4]: Active
Activity [5]: 12.5 µg/mL
